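How tested: cells in 96-well plates exposed to compound for 48 hours at five concentrations. Abbreviation: GI50, concentration required for 50% inhibition of growth.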 The source made the active and inactive calls. Rule as the data show it: active = GI50 up to about 1.1 µM and inactive = higher.
Columns and labels:
Test in all cases: NCI anticancer screen, dose series, 48 h
[1] = system: UACC-257
[2] = system: SF-539
[3] = system: MOLT-4
[4] = system: RPMI-8226
[5] = system: A549
[6] = system: NCI-H460
[7] = system: MCF7
[8] = system: HCT-116
[9] = system: DU-145
[10] = system: SNB-19
[11] = system: HT-29
[12] = system: NCI/ADR-RES
[13] = system: HL-60
[14] = system: IGROV-1
[15] = system: KM12
[16] = system: SK-OV-3
[17] = system: OVCAR-3
[18] = system: MDA-MB-231
[19] = system: SW-620
[20] = system: CAKI-1

Measured: GI50

Cc1ccc2c(c1C)C(=O)/C(=C/c1cccc(C)c1C(=O)O)C2
inactive: [1] 57.9 µM | [2] 69.2 µM | [3] 53.2 µM | [4] 71.3 µM | [5] 79.6 µM | [6] 65 µM | [7] 25.9 µM | [8] 48.4 µM | [9] > 100 µM | [10] > 100 µM | [11] 85.5 µM | [12] 59.8 µM | [13] 48.6 µM | [14] > 86.7 µM | [15] 47.6 µM | [16] 59.8 µM | [17] 71.6 µM | [18] > 62.7 µM

CN1CCN(Cc2ccccc2)CC1CC#N (stereo unspecified)
inactive: [1] > 100 µM | [2] > 100 µM | [19] > 100 µM | [3] > 100 µM | [4] > 100 µM | [5] > 100 µM | [6] > 100 µM | [7] > 100 µM | [8] > 100 µM | [9] > 100 µM | [10] > 100 µM | [11] > 100 µM | [12] > 100 µM | [13] > 100 µM | [14] > 100 µM | [15] > 100 µM | [16] > 100 µM | [20] > 100 µM | [17] > 100 µM | [18] > 100 µM

Cc1oc2c(cc(O)c3ccccc32)c2cccc1-2
inactive: [1] > 100 µM | [2] > 100 µM | [19] > 100 µM | [3] > 100 µM | [4] > 100 µM | [5] > 100 µM | [6] > 100 µM | [7] > 100 µM | [8] > 100 µM | [9] 36.1 µM | [10] > 100 µM | [11] > 100 µM | [12] > 100 µM | [13] 96.6 µM | [15] > 100 µM | [16] > 100 µM | [20] > 100 µM | [17] > 100 µM | [18] 14.3 µM

CN1C(=O)N(C)C2(CCN(CC(CC3OCCO3)c3ccc(F)cc3)CC2)C1=O (stereo unspecified)
inactive: [1] > 100 µM | [2] > 100 µM | [3] > 100 µM | [4] > 100 µM | [5] > 100 µM | [7] > 100 µM | [8] > 100 µM | [9] > 100 µM | [10] > 100 µM | [11] > 100 µM | [12] > 100 µM | [13] > 100 µM | [14] > 100 µM | [16] > 100 µM | [20] > 100 µM | [17] > 100 µM | [18] > 100 µM

Clc1ccc(/C=C/c2nc(-c3ccccc3)cn3c2nc2ccccc23)cc1Cl
inactive: [1] > 100 µM | [2] > 100 µM | [19] 41.6 µM | [3] 46.9 µM | [4] 41.9 µM | [5] 59.6 µM | [6] 32.7 µM | [7] 34.8 µM | [8] 27.7 µM | [9] > 100 µM | [10] 59.6 µM | [11] 37.3 µM | [12] 55.6 µM | [13] 19.6 µM | [14] 36.1 µM | [15] 31.4 µM | [16] > 100 µM | [17] 31.9 µM | [18] > 100 µM

CN(N=O)c1nc2c(C(N)=O)ncn2s1
inactive: [1] 94.6 µM | [2] 80.7 µM | [19] 46.9 µM | [3] > 100 µM | [4] 45 µM | [5] > 100 µM | [6] 52.1 µM | [7] 86.7 µM | [8] 53 µM | [9] 20 µM | [10] > 100 µM | [11] > 100 µM | [12] 39.7 µM | [14] 63.1 µM | [15] > 100 µM | [16] 48.6 µM | [20] 28.1 µM | [17] 87.1 µM | [18] 36.3 µM

COC(=O)[C@H](C)N1C(=O)N[C@@H](C(C)C)C1=O
inactive: [1] > 100 µM | [2] > 100 µM | [19] > 100 µM | [3] > 100 µM | [4] > 100 µM | [5] > 100 µM | [6] > 100 µM | [7] > 100 µM | [8] > 100 µM | [9] > 100 µM | [10] > 100 µM | [11] > 100 µM | [12] > 100 µM | [14] > 100 µM | [15] > 100 µM | [16] > 100 µM | [20] > 100 µM | [17] > 100 µM | [18] > 100 µM

Cc1ccc2[nH]c(=O)c(-c3cnc(O)nn3)c(O)c2c1
inactive: [1] 57.4 µM | [2] > 100 µM | [19] > 100 µM | [3] 5.06 µM | [4] 6.24 µM | [5] 32 µM | [6] > 100 µM | [7] 36.9 µM | [8] 32.7 µM | [9] > 100 µM | [11] > 100 µM | [12] > 100 µM | [13] > 100 µM | [14] > 100 µM | [15] > 100 µM | [16] > 100 µM | [20] 55.3 µM | [17] 58.1 µM | [18] > 100 µM

CC1=CCS(=O)(=O)C1C(O)C1=C(C)CCCC1(C)C (stereo unspecified)
inactive: [1] 58.9 µM | [2] > 100 µM | [19] > 100 µM | [3] 51.2 µM | [4] 14.3 µM | [5] 68.5 µM | [7] 50.8 µM | [8] 72.3 µM | [9] > 100 µM | [10] > 100 µM | [11] > 100 µM | [12] 78.7 µM | [13] 35.3 µM | [14] > 100 µM | [15] 59.7 µM | [16] > 100 µM | [20] > 100 µM | [17] 99.8 µM | [18] > 100 µM

O=C1NC(N2CCOCC2)=N/C1=C\c1ccc(Cl)cc1
inactive: [1] > 100 µM | [2] > 100 µM | [19] > 100 µM | [3] > 100 µM | [4] > 100 µM | [5] > 100 µM | [7] > 100 µM | [8] > 100 µM | [9] > 100 µM | [10] > 100 µM | [11] > 100 µM | [12] > 100 µM | [13] > 100 µM | [14] > 100 µM | [15] > 100 µM | [16] > 100 µM | [20] > 100 µM | [17] > 100 µM | [18] > 100 µM

Nc1ccc2nc(-c3ccccn3)c(-c3ccccn3)nc2c1
inactive: [1] > 100 µM | [2] > 100 µM | [19] > 100 µM | [3] > 100 µM | [4] > 100 µM | [5] > 100 µM | [6] > 100 µM | [7] > 100 µM | [8] > 100 µM | [9] > 100 µM | [10] > 100 µM | [12] > 100 µM | [13] > 100 µM | [14] > 100 µM | [15] > 100 µM | [20] > 100 µM | [17] > 100 µM | [18] > 100 µM

— ChEMBL document CHEMBL1201862, “PubChem BioAssay data set” (2004)
